Measurements published in patent US20240425480A1, “NOVEL PYRIDINE DERIVATIVE COMPOUND AS RON INHIBITOR” (LG CHEM, LTD., priority 2021, published 2024).

Key:
[1] = target: RON (Homo sapiens, UniProt Q04912); assay: Inhibitory activity against RON, TR-FRET kinase assay; type: biochemical; conditions: TR-FRET enzyme assay
Method: In order to measure the inhibitory activity of each of the compounds of Examples against RON, the IC50 of each of the compounds was measured using Time-resolved fluorescence energy transfer (TR-FRET).
(§1) Specifically, the compound was prepared to a concentration of 1 mM in 100% DMSO and was diluted 10 times in a stepwise manner through 3-fold dilution. The compound (2 ul) diluted in a stepwise manner was added to a 96-well-plate containing 48 ul of a 1× kinase reaction buffer (50 mM HEPES (pH 7.4), 0.01% Tween-20, 5 mM DTT, 0.5 mM Na3VO4, 2 mM EGTA, 10 mM MgCl2).
The RON protein was diluted to a concentration of 49.3 nM in a RON storage buffer (50 mM Tris-HCl (pH 7.5), 150 mM NaCl, 0.5 mM EDTA, 0.02% Triton X-100), and then diluted again to a concentration of 0.4 nM in a 1×kinase reaction buffer. As a substrate cocktail, a RON-specific substrate mixed solution (40 uM ULight-labeled Poly GT, 100 nM ATP) was prepared at a concentration 2 times the final reaction concentration.
(§2) Thereafter, a 384-well-plate was prepared, and 2.5 μl of each of the diluted compounds of Examples was added to a corresponding well of experimental group wells, and 2.5 μl of a 4% DMSO solution was dispensed into high control wells and low control wells.
(§3) Thereafter, 2.5 μL of 0.4 nM RON was dispensed into each of the high control wells and the experimental group wells, and 2.5 μL of the 1× kinase reaction buffer was added to the low control wells, and all the wells were centrifuged at room temperature for 40 seconds at 1,000 RPM, and then incubated at room temperature for 20-30 minutes. Then, 5 μL of the substrate cocktail (2×) was dispensed into each well, and all the wells were centrifuged at room temperature for 40 seconds at 1,000 RPM, and then incubated at room temperature for 60 minutes. Thereafter, 5 μL of 30 mM EDTA was added to each well to terminate the reaction, and all the wells were then incubated again at room temperature for 5 minutes. Thereafter, 5 μL of a 4×phosphotyrosine antibody (Perkin Elmer) containing europium was added to each well, and all the wells were then incubated at room temperature for 60 minutes. After the incubation, the 384-well-plate was read with the Vison plate reader. In this case, the excitation wavelength was 340 nm, and the emission wavelength was 620 nm and 665 nm. The IC50 value of each compound of Examples was derived using the GraphPd Prism7 program.

[2] = target: cMET (Homo sapiens, UniProt P08581); assay: Inhibitory activity against MET (cMET), TR-FRET kinase assay; type: biochemical; conditions: TR-FRET enzyme assay
cMET, sequence (P08581 25-1390): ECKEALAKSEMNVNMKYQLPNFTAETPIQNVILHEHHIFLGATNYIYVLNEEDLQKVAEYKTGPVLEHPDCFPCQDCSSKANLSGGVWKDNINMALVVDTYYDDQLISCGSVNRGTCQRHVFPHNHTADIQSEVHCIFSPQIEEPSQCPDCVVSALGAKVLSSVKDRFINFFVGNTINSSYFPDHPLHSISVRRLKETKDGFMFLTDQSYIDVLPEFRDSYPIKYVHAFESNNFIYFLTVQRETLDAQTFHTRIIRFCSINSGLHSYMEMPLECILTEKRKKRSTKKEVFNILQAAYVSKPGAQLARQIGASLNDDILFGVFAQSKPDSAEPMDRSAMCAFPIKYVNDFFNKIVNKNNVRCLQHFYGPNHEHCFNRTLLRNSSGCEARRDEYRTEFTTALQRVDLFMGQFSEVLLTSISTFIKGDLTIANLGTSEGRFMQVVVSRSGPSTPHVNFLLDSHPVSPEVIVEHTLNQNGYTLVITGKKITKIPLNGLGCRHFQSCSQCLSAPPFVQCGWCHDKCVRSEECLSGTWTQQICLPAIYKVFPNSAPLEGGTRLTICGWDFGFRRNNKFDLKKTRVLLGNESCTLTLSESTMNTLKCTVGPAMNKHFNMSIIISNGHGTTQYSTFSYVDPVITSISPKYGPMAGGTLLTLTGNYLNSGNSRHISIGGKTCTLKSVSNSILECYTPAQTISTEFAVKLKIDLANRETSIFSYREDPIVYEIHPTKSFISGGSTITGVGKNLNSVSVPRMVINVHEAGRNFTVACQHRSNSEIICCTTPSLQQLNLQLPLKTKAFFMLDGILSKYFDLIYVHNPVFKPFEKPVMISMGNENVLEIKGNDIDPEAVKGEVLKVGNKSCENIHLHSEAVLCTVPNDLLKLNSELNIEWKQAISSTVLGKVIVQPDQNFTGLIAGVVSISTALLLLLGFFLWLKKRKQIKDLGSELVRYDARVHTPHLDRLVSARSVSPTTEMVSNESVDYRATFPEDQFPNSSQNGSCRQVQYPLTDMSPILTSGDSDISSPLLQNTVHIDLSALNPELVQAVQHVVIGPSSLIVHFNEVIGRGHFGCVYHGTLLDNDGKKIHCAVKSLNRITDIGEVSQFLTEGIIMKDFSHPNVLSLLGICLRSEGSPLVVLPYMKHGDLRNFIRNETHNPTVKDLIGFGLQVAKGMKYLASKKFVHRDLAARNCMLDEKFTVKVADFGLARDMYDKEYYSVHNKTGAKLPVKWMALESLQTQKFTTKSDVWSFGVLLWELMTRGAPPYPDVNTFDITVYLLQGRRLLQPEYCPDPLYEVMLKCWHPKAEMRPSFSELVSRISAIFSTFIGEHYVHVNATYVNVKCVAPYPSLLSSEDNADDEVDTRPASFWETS
Method: In addition, in order to measure the enzyme activity inhibition for cMET, the evaluation was performed in the same manner as the enzyme activity inhibition measurement experiment for RON.
as §1, with “a 1×kinase” for “a 1× kinase”, “7.4), 0.05% BSA, 0.005%” for “7.4), 0.01%”, “Tween-20, 1” for “Tween-20, 5”, “mM MnCl2, 20” for “mM Na3VO4, 2 mM EGTA, 10”
The cMET protein was diluted to a concentration of 263 nM in a cMET storage buffer (50 mM Tris-HCl (pH 7.5), 150 mM NaCl, 0.05% Brij35, 1 mM DTT, 10% Glycerol), and then diluted again to a concentration of 2 nM in a 1×kinase reaction buffer. As a substrate cocktail, a MET-specific substrate mixed solution (5 uM TK peptide, 10 mM ATP) was prepared at a concentration 2 times the final reaction concentration.
as §2
as §3, with “of 2” for “of 0.4”, “nM cMET” for “nM RON”, “of 90” for “of 30”, “The […]” for “The IC50”

RON, sequence (Q04912 25-1400, species assumed): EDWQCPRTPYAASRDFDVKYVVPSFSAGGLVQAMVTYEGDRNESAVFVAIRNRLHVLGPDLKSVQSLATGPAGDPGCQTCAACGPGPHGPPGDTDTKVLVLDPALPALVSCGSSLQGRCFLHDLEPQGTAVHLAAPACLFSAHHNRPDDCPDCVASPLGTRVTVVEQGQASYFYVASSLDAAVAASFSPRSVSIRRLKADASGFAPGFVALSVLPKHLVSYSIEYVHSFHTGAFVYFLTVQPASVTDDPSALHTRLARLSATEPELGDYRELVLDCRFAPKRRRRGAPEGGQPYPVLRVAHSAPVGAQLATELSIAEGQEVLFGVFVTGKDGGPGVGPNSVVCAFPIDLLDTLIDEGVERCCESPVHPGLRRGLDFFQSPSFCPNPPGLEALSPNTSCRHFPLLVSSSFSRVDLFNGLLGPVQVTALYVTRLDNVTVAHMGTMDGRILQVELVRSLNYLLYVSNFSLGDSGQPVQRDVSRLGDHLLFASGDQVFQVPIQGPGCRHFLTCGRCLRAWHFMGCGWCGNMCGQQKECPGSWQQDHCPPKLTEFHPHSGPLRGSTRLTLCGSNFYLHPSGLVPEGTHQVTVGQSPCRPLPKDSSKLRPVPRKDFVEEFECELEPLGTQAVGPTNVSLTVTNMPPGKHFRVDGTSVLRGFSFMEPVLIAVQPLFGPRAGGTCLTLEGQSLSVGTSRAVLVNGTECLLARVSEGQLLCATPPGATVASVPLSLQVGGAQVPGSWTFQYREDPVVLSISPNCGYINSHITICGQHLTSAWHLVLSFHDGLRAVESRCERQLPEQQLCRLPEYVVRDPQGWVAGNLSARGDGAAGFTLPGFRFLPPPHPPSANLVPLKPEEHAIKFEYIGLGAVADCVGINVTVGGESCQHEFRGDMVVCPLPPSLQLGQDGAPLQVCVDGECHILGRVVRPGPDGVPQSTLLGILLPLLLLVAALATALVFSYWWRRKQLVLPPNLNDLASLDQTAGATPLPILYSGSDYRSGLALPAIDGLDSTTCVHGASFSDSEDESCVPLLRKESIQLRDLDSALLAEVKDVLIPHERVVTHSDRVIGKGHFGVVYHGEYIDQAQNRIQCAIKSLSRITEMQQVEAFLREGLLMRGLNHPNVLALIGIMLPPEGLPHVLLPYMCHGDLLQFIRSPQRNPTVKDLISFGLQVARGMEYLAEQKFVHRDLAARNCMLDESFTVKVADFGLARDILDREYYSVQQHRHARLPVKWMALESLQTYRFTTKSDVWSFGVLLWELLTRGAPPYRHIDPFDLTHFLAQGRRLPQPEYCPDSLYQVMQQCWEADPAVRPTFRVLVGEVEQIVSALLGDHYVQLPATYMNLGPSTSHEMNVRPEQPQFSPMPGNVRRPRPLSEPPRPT

SMILES | IC50 [1] | IC50 [2]
Nc1ncnc(Oc2ccc(NC(=O)c3nc(-c4ccccc4)cs3)cc2F)c1Cl [Example 41, N-[4-(6-amino-5-chloro-pyrimidin-4-yl)oxy-3-fluoro-phenyl]-4-phenyl-thiazole-2-carboxamide] | > 5000 nM | > 5000 nM
Cn1cc(-n2ncc(C(=O)Nc3ccc(Oc4ncnc(N)c4Cl)c(F)c3)c2C(F)(F)F)cn1 [Example 42, N-[4-(6-amino-5-chloro-pyrimidin-4-yl)oxy-3-fluoro-phenyl]-1-(1-methylpyrazol-4-yl)-5-(trifluoromethyl)pyrazole-4-carboxamide] | 500 to 5000 nM | > 5000 nM
Nc1ncnc(Oc2ccc(NC(=O)c3cnn(-c4ccccn4)c3C(F)(F)F)cc2F)c1Cl [Example 43, N-(4-((6-amino-5-chloropyrimidin-4-yl)oxy)-3-fluorophenyl)-1-(pyridin-2-yl)-5-(trifluoromethyl)-1H-pyrazole-4-carboxamide] | < 50 nM | > 5000 nM
Nc1ncnc(Oc2ccc(NC(=O)c3cnn(-c4cncnc4)c3C(F)(F)F)cc2F)c1Cl [Example 44, N-[4-(6-amino-5-chloro-pyrimidin-4-yl)oxy-3-fluoro-phenyl]-1-pyrimidin-5-yl-5-(trifluoromethyl)pyrazole-4-carboxamide] | 50 to 500 nM | > 5000 nM
Nc1ncnc(Oc2ccc(NC(=O)c3cnn(-c4ncccc4F)c3C(F)(F)F)cc2F)c1Cl [Example 45, N-[4-(6-amino-5-chloro-pyrimidin-4-yl)oxy-3-fluoro-phenyl]-1-(3-fluoro-2-pyridyl)-5-(trifluoromethyl)pyrazole-4-carboxamide] | < 50 nM | 500 to 5000 nM
Cc1cccnc1-n1ncc(C(=O)Nc2ccc(Oc3ncnc(N)c3Cl)c(F)c2)c1C(F)(F)F [Example 46, N-[4-(6-amino-5-chloro-pyrimidin-4-yl)oxy-3-fluoro-phenyl]-1-(3-methyl-2-pyridyl)-5-(trifluoromethyl)pyrazole-4-carboxamide] | 50 to 500 nM | > 5000 nM
Cc1ccnc(-n2ncc(C(=O)Nc3ccc(Oc4ncnc(N)c4Cl)c(F)c3)c2C(F)(F)F)c1 [Example 47, N-[4-(6-amino-5-chloro-pyrimidin-4-yl)oxy-3-fluoro-phenyl]-1-(4-methyl-2-pyridyl)-5-(trifluoromethyl)pyrazole-4-carboxamide] | 50 to 500 nM | > 5000 nM
Cc1ccc(-n2ncc(C(=O)Nc3ccc(Oc4ncnc(N)c4Cl)c(F)c3)c2C(F)(F)F)nc1 [Example 48, N-[4-(6-amino-5-chloro-pyrimidin-4-yl)oxy-3-fluoro-phenyl]-1-(5-methyl-2-pyridyl)-5-(trifluoromethyl)pyrazole-4-carboxamide] | 500 to 5000 nM | > 5000 nM
Cc1cccc(-n2ncc(C(=O)Nc3ccc(Oc4ncnc(N)c4Cl)c(F)c3)c2C(F)(F)F)n1 [Example 49, N-[4-(6-amino-5-chloro-pyrimidin-4-yl)oxy-3-fluoro-phenyl]-1-(6-methyl-2-pyridyl)-5-(trifluoromethyl)pyrazole-4-carboxamide] | 500 to 5000 nM | > 5000 nM
Nc1ncnc(Oc2ccc(NC(=O)c3cnn(-c4ccc(F)cn4)c3C(F)(F)F)cc2F)c1Cl [Example 50, N-[4-(6-amino-5-chloro-pyrimidin-4-yl)oxy-3-fluoro-phenyl]-1-(5-fluoro-2-pyridyl)-5-(trifluoromethyl)pyrazole-4-carboxamide] | 50 to 500 nM | > 5000 nM
Nc1ncnc(Oc2ccc(NC(=O)c3cnn(-c4ncccc4Cl)c3C(F)(F)F)cc2F)c1Cl [Example 51, N-[4-(6-amino-5-chloro-pyrimidin-4-yl)oxy-3-fluoro-phenyl]-1-(3-chloro-2-pyridyl)-5-(trifluoromethyl)pyrazole-4-carboxamide] | < 50 nM | 500 to 5000 nM
Nc1ncnc(Oc2ccc(NC(=O)c3cnn(-c4cc(Cl)ccn4)c3C(F)(F)F)cc2F)c1Cl [Example 52, N-[4-(6-amino-5-chloro-pyrimidin-4-yl)oxy-3-fluoro-phenyl]-1-(4-chloro-2-pyridyl)-5-(trifluoromethyl)pyrazole-4-carboxamide] | 500 to 5000 nM | > 5000 nM
Nc1ncnc(Oc2ccc(NC(=O)c3cnn(-c4ncccc4C(F)(F)F)c3C(F)(F)F)cc2F)c1Cl [Example 53, N-[4-(6-amino-5-chloro-pyrimidin-4-yl)oxy-3-fluoro-phenyl]-5-(trifluoromethyl)-1-[3-(trifluoromethyl)-2-pyridyl]pyrazole-4-carboxamide] | 50 to 500 nM | 500 to 5000 nM

Other lines, results leading:

IC50 [1] | IC50 [2] | SMILES
50 to 500 nM | > 5000 nM | COc1cccnc1-n1ncc(C(=O)Nc2ccc(Oc3ncnc(N)c3Cl)c(F)c2)c1C(F)(F)F [Example 54, N-[4-(6-amino-5-chloro-pyrimidin-4-yl)oxy-3-fluoro-phenyl]-1-(3-methoxy-2-pyridyl)-5-(trifluoromethyl)pyrazole-4-carboxamide]
500 to 5000 nM | > 5000 nM | CCc1ccnc(-n2ncc(C(=O)Nc3ccc(Oc4ncnc(N)c4Cl)c(F)c3)c2C(F)(F)F)c1 [Example 55, N-[4-(6-amino-5-chloro-pyrimidin-4-yl)oxy-3-fluoro-phenyl]-1-(4-ethyl-2-pyridyl)-5-(trifluoromethyl)pyrazole-4-carboxamide]
50 to 500 nM | > 5000 nM | Nc1ncnc(Oc2ccc(NC(=O)c3cnn(-c4cccnc4)c3C(F)(F)F)cc2F)c1Cl [Example 56, N-[4-(6-amino-5-chloro-pyrimidin-4-yl)oxy-3-fluoro-phenyl]-1-(3-pyridyl)-5-(trifluoromethyl)pyrazole-4-carboxamide]
500 to 5000 nM | > 5000 nM | Nc1ncnc(Oc2ccc(NC(=O)c3cnn(-c4ccncc4)c3C(F)(F)F)cc2F)c1Cl [Example 57, N-[4-(6-amino-5-chloro-pyrimidin-4-yl)oxy-3-fluoro-phenyl]-1-(4-pyridyl)-5-(trifluoromethyl)pyrazole-4-carboxamide]
50 to 500 nM | > 5000 nM | CCc1cccnc1-n1ncc(C(=O)Nc2ccc(Oc3ncnc(N)c3Cl)c(F)c2)c1C(F)(F)F [Example 58, N-[4-(6-amino-5-chloro-pyrimidin-4-yl)oxy-3-fluoro-phenyl]-1-(3-ethyl-2-pyridyl)-5-(trifluoromethyl)pyrazole-4-carboxamide]
< 50 nM | > 5000 nM | Nc1ncnc(Oc2ccc(NC(=O)c3cnn(-c4ncccn4)c3C(F)(F)F)cc2F)c1Cl [Example 59, N-[4-(6-amino-5-chloro-pyrimidin-4-yl)oxy-3-fluoro-phenyl]-1-pyrimidin-2-yl-5-(trifluoromethyl)pyrazole-4-carboxamide]
50 to 500 nM | > 5000 nM | Nc1ncnc(Oc2ccc(NC(=O)c3cnn(-c4cccnn4)c3C(F)(F)F)cc2F)c1Cl [Example 60, N-[4-(6-amino-5-chloro-pyrimidin-4-yl)oxy-3-fluoro-phenyl]-1-pyridazin-3-yl-5-(trifluoromethyl)pyrazole-4-carboxamide]
